In ChEMBL document CHEMBL3616440, “Non-basic azolotriazinone MCHR1 antagonists for the treatment of obesity: An empirical brain-exposures-driven candidate selection for in vivo efficacy studies” (Bioorg Med Chem Lett, 2015):
pIC50, pKi: −log10 of the molar value.

Experiments:
[1] = target: T1, Melanin-concentrating hormone receptor 1 (Homo sapiens, UniProt Q99705); test: Displacement of [125I][Phe13,Tyr19]-MCH from human MCHR1 expressed in HEK293 cells by scintillation counting analysis; format: cell-based
T1 sequence (Q99705 whole entry): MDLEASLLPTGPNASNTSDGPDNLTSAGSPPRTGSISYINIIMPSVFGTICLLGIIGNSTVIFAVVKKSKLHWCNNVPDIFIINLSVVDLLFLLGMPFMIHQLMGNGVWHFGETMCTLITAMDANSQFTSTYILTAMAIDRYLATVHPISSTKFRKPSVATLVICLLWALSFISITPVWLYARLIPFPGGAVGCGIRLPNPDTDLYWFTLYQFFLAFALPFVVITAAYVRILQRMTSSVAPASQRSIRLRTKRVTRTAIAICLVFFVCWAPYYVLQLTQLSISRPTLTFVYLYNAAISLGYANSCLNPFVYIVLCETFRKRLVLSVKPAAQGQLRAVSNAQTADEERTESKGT

[2] = target: Melanin-concentrating hormone receptor 1 (Rattus norvegicus, UniProt P97639); test: Displacement of [125I][Phe13,Tyr19]-MCH from rat MCHR1 by scintillation counting analysis
Chain of Melanin-concentrating hormone receptor 1 (Rattus norvegicus, UniProt P97639) (P97639 whole entry): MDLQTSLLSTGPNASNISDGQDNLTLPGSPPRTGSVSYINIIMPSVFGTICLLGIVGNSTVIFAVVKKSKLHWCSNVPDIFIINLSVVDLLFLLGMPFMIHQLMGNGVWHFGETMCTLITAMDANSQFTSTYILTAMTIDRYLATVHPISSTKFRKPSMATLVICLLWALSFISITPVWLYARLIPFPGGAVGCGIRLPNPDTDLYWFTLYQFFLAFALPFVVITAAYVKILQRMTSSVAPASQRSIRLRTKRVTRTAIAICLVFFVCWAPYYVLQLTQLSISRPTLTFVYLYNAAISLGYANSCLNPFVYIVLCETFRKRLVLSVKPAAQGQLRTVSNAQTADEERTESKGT

[3] = target: Voltage-gated inwardly rectifying potassium channel KCNH2 (Homo sapiens, UniProt Q12809); test: Inhibition of human ERG by flux assay
Chain of Voltage-gated inwardly rectifying potassium channel KCNH2 (Q12809 whole entry): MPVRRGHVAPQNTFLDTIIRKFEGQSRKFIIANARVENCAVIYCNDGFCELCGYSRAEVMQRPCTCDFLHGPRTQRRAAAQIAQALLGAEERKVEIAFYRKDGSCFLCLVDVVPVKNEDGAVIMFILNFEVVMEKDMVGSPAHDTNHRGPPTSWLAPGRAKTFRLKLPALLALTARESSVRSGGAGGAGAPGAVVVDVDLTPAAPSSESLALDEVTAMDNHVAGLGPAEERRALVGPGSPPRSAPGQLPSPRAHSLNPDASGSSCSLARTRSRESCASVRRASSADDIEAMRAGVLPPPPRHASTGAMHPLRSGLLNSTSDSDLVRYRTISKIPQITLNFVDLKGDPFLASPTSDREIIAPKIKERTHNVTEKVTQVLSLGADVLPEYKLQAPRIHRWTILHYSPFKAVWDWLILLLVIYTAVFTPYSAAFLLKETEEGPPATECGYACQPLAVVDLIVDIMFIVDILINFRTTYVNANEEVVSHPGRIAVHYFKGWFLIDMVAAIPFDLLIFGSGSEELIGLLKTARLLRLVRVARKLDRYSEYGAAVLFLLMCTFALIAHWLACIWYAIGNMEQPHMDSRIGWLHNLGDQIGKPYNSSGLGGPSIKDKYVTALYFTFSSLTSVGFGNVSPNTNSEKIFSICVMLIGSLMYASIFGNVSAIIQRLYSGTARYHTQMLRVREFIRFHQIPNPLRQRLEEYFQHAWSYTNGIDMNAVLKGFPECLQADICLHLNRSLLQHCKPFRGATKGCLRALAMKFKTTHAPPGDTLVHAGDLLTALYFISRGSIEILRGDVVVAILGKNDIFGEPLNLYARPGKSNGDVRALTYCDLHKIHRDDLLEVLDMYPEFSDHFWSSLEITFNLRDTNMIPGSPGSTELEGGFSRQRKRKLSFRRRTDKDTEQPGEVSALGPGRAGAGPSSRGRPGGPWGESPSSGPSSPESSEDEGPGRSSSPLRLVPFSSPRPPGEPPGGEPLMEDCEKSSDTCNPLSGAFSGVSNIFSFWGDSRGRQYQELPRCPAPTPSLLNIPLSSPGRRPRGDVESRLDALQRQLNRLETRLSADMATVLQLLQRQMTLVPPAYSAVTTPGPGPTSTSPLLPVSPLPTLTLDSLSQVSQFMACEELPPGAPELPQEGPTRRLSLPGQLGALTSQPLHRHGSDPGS

[4] = target: T1, Melanin-concentrating hormone receptor 1; test: Antagonist activity at human MCHR1 expressed in HEK293 cells assessed as inhibition of MCH-induced Ca2+ influx for 120 mins by FLIPR assay; format: functional, cell-based
[5] = tested on: Brain; test: Drug concentration in Sprague-Dawley rat brain assessed as 6-(4-chlorophenyl)-3-(4-((3S,4R)-3,4-dihydroxypyrrolidin-1-yl)-3-methoxyphenyl)pyrrolo[1,2-f][1,2,4]triazin-4(3H)-one level at 10 mg/kg, po qd at 8 hrs; format: ADME, organism-based; settings: in vivo, read-out: Drug uptake
[6] = tested on: Plasma; test: Plasma concentration in Sprague-Dawley rat assessed as 6-(4-chlorophenyl)-3-(4-((3S,4R)-3,4-dihydroxypyrrolidin-1-yl)-3-methoxyphenyl)pyrrolo[1,2-f][1,2,4]triazin-4(3H)-one level at 10 mg/kg, po qd at 8 hrs; format: ADME, organism-based; settings: in vivo
[7] = tested on: Nucleic Acid; test: Ratio of drug level in Sprague-Dawley rat brain to plasma assessed as 6-(4-chlorophenyl)-3-(4-((3S,4R)-3,4-dihydroxypyrrolidin-1-yl)-3-methoxyphenyl)pyrrolo[1,2-f][1,2,4]triazin-4(3H)-one level at 10 mg/kg, po qd; format: ADME, organism-based
[8] = tested on: Rattus norvegicus; test: Drug level in oral-dosed Sprague-Dawley rat treated with 1-(4-(6-(4-chlorophenyl)-4-oxothieno[3,2-d]pyrimidin-3(4H)-yl)-2-methoxyphenoxy)-2-methylpropan-2-yl 2-aminoacetate; format: ADME, organism-based; settings: in vivo
[9] = tested on: Nucleic Acid; test: Ratio of drug level in Sprague-Dawley rat brain to plasma assessed as 6-(4-chlorophenyl)-3-(4-((3,3-difluoro-1-hydroxycyclobutyl)methoxy)-3-methoxyphenyl)pyrrolo[1,2-f][1,2,4]triazin-4(3H)-one level at 10 mg/kg, po qd; format: ADME, organism-based
[10] = tested on: Plasma; test: Plasma concentration in Sprague-Dawley rat assessed as 6-(4-chlorophenyl)-3-(4-((3,3-difluoro-1-hydroxycyclobutyl)methoxy)-3-methoxyphenyl)pyrrolo[1,2-f][1,2,4]triazin-4(3H)-one level at 10 mg/kg, po qd at 8 hrs; format: ADME, organism-based; settings: in vivo
[11] = tested on: Brain; test: Drug concentration in Sprague-Dawley rat brain assessed as 6-(4-chlorophenyl)-3-(4-((3,3-difluoro-1-hydroxycyclobutyl)methoxy)-3-methoxyphenyl)pyrrolo[1,2-f][1,2,4]triazin-4(3H)-one level at 10 mg/kg, po qd at 8 hrs; format: ADME, organism-based; settings: in vivo, read-out: Drug uptake

SMILES | pKi [1] | pKi [2] | further results
CCS(=O)(=O)C[C@@H](O)COc1ccc(-n2cnn3cc(-c4ccc(Cl)cc4)cc3c2=O)cc1OC | 8.62 | 8.82 | 
COc1cc(-n2cnn3cc(-c4ccc(Cl)cc4)cc3c2=O)ccc1N1CC[C@@H](O)C1 | 8.32 | 8.33 | 
COc1cc(-n2cnn3cc(-c4ccc(Cl)cn4)cc3c2=O)ccc1OCC1(O)CC(F)(F)C1 | 8.19 | 8.19 | 
COc1cc(-n2cnn3cc(-c4ccc(Cl)cc4)cc3c2=O)ccc1OCC(O)C1CC1 (stereo not drawn) | 8.46 |  | pIC50 [4]: 6.52
COc1cc(-n2cnn3cc(-c4ccc(Cl)cc4)cc3c2=O)ccc1N1C[C@H](OC(=O)[C@@H](N)C(C)C)[C@H](OC(=O)[C@@H](N)C(C)C)C1 |  |  | concentration [5]: 210 nM; concentration [6]: 272 nM; BPR [7]: 0.77
COc1cc(-n2cnc3cc(-c4ccc(Cl)cc4)sc3c2=O)ccc1OCC(C)(O)CO (stereo not drawn) |  |  | Drug metabolism [8]: metabolite_detected
COc1cc(-n2cnn3cc(-c4ccc(Cl)cc4)cc3c2=O)ccc1N1C[C@@H](O)[C@@H](O)C1 | 8.51 | 8.64 | pIC50 [4]: 5.30
COc1cc(-n2cnn3nc(-c4ccc(Cl)cc4)cc3c2=O)ccc1OCCN1CCCC1 | 9.15 | 9.30 | 
COc1cc(-n2cnn3cc(-c4ncc(Cl)cn4)cc3c2=O)ccc1OCC1(O)CC(F)(F)C1 | 8.05 | 8.10 | 
COc1cc(-n2cnn3cc(-c4ncc(Cl)cn4)cc3c2=O)ccc1OCC(O)C1CC1 (stereo not drawn) | 7.77 | 7.82 | 
COc1cc(-n2cnn3cc(-c4ccc(Cl)cc4)cc3c2=O)ccc1OCC1(OC(=O)CN)CC(F)(F)C1 |  |  | BPR [9]: 0.6; concentration [10]: 477 nM; concentration [11]: 2380 nM
O=c1c2cc(-c3ccc(Cl)cc3)cn2ncn1-c1ccc(N2CC(O)C2)nc1 | 7.82 | 7.85 | pIC50 [3]: 5.48
COc1cc(-n2cnn3nc(-c4ccc(Cl)cc4)cc3c2=O)ccc1OCC(O)C1CC1 (stereo not drawn) | 7.89 | 7.89 | 
COc1ccc(-n2cnn3nc(-c4ccc(Cl)cc4)cc3c2=O)cc1OC | 7.07 | 6.97 | 

Second part, led by results:

pKi [1] | pKi [2] | SMILES | further results
9.30 | 9.40 | COc1cc(-n2cnn3cc(-c4ccc(Cl)cc4)cc3c2=O)ccc1OCCN1CCCC1 | pIC50 [3]: 5.26
9.40 | 9.52 | CNC1CCN(c2ccc(-n3cnn4cc(-c5ccc(Cl)cc5)cc4c3=O)cn2)C1 (stereo not drawn) | 
 | 8.85 | COc1cc(-n2cnn3cc(-c4ccc(Cl)cc4)cc3c2=O)ccc1OCC(C)O (stereo not drawn) | 
7.55 | 7.64 | CCS(=O)(=O)C[C@@H](O)COc1ccc(-n2cnn3cc(-c4ncc(Cl)cn4)cc3c2=O)cc1OC | 
7.59 | 7.74 | COc1cc(-n2cnn3cc(-c4ccc(Cl)cc4)nc3c2=O)ccc1OCC(O)C1CC1 (stereo not drawn) | 
8.36 | 8.59 | COc1cc(-n2cnn3cc(-c4ccc(Cl)cc4)nc3c2=O)ccc1OCCN1CCCC1 | 
